# Assay results published in ChEMBL document CHEMBL4219256, “Design, Synthesis, and Biological Evaluation of 4-Quinoline Carboxylic Acids as Inhibitors of Dihydroorotate Dehydrogenase” (J Med Chem, 2018).
# Columns and labels:
# MIA PaCa-2 = assay: Antiproliferative activity against human MIAPaCa2 cells after 72 hrs by MTT assay; format: functional, cell-based
# HCT-116 [1] = assay: Antiproliferative activity against human HCT116 cells over-expressing DHODH after 72 hrs by MTT assay; format: functional, cell-based
# HL-60 = assay: Antiproliferative activity against human HL60 cells after 72 hrs by MTT assay
# [2] = biological target: Dihydroorotate dehydrogenase (quinone), mitochondrial (Homo sapiens, UniProt Q02127)
# Dihydroorotate dehydrogenase (quinone), mitochondrial, sequence (Q02127 whole entry): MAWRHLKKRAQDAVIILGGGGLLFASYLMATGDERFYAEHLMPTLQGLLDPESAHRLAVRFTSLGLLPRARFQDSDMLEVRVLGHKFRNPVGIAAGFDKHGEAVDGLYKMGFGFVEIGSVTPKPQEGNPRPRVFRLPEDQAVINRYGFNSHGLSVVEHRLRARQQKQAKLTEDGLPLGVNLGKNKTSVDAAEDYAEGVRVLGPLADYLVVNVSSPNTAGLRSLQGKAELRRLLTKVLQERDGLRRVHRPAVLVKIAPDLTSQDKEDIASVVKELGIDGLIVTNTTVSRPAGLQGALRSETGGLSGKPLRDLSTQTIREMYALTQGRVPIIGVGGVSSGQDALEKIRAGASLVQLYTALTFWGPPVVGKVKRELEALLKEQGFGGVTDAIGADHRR
# Description: Inhibition of DHODH (unknown origin) expressed in Escherichia coli Rosetta2(DE3) assessed as reduction of DCIP using dihydroorotate as substrate preincubated for 30 mins followed by substrate addition in presence of CoQ10 measured after 1 hr
# HCT-116 [3] = assay: Growth inhibition of human HCT116 cells over-expressing DHODH at 2 times antiproliferative IC50 after 72 hrs in presence of 5 uM uridine by MTT assay; format: functional
# [4] = Thermodynamic aqueous solubility of the compound in pH 7.4 phosphate buffer at 2.9 mg/ml after overnight incubation by CLND method; format: physicochemical
# [5] = Thermodynamic aqueous solubility of the compound in pH 7.4 phosphate buffer at 4.9 mg/ml after overnight incubation by CLND method; format: physicochemical
# [6] = Thermodynamic aqueous solubility of the compound in pH 7.4 phosphate buffer at 6.7 mg/ml after overnight incubation by CLND method; format: physicochemical
# [7] = Thermodynamic aqueous solubility of the compound in pH 7.4 phosphate buffer at 8.7 mg/ml after overnight incubation by CLND method; format: physicochemical
# [8] = Initial plasma concentration in CD-1 mouse at 10 mg/kg, iv; format: ADME, organism-based
# [9] = Cmax in CD-1 mouse at 20 mg/kg, po; format: ADME, organism-based; set-up: dose 20 mg/kg, route oral; conditions: in vivo
# [10] = Tmax in CD-1 mouse at 20 mg/kg, po; format: ADME, organism-based; conditions: in vivo
# [11] = AUC (0 to last) in CD-1 mouse at 10 mg/kg, iv; format: ADME, organism-based; set-up: dose 10 mg/kg, time 0 - last, route intravenous; conditions: in vivo
# [12] = AUC (0 to last) in CD-1 mouse at 20 mg/kg, po; format: ADME, organism-based; set-up: dose 20 mg/kg, route oral, time 0 - last; conditions: in vivo
# [13] = AUC (0 to infinity) in CD-1 mouse at 10 mg/kg, iv; format: ADME, organism-based; set-up: dose 10 mg/kg, time infinity, route intravenous; conditions: in vivo
# [14] = AUC (0 to infinity) in CD-1 mouse at 20 mg/kg, po; format: ADME, organism-based; set-up: dose 20 mg/kg, time infinity, route oral; conditions: in vivo
# [15] = Elimination half life in CD-1 mouse at 10 mg/kg, iv; format: ADME, organism-based; conditions: in vivo, read-out: beta t1/2 (converted)
# [16] = Elimination half life in CD-1 mouse at 20 mg/kg, po; format: ADME, organism-based; conditions: in vivo, read-out: beta t1/2 (converted)
# [17] = Clearance in CD-1 mouse at 10 mg/kg, iv; format: ADME, organism-based; conditions: in vivo
# [18] = Apparent clearance in CD-1 mouse at 20 mg/kg, po; format: ADME, organism-based; conditions: in vivo
# [19] = Volume of distribution at steady state in CD-1 mouse at 10 mg/kg, iv; format: ADME, organism-based; conditions: in vivo, read-out: Vdss
# [20] = Apparent volume of distribution during terminal phase in CD-1 mouse at 20 mg/kg, po; format: ADME, organism-based; conditions: in vivo, read-out: Vz/F
# Mus musculus = assay: Oral bioavailability in CD-1 mouse at 20 mg/kg; format: ADME, organism-based; conditions: in vivo
# [21] = Thermodynamic aqueous solubility of the compound in pH 7.4 phosphate buffer at 5.8 mg/ml after overnight incubation by CLND method; format: physicochemical
# [22] = Solubility of the compound in water at pH 7.4; format: physicochemical
# [23] = Cmax in human at 8 mg/m2 administered as 10 mins iv infusion; format: ADME, organism-based; set-up: route intravenous; conditions: in vivo
# [24] = Cmax in human at 16 mg/m2 administered as 10 mins iv infusion; format: ADME, organism-based; set-up: route intravenous; conditions: in vivo
# [25] = AUC (0 to last) in human at 8 mg/m2 administered as 10 mins iv infusion; format: ADME, organism-based; set-up: time 0 - last, route intravenous; conditions: in vivo
# [26] = AUC (0 to last) in human at 16 mg/m2 administered as 10 mins iv infusion; format: ADME, organism-based; set-up: route intravenous, time 0 - last; conditions: in vivo
# [27] = AUC (0 to last) in human at 36 mg/m2, iv; format: ADME, organism-based; set-up: route intravenous, time 0 - last; conditions: in vivo
# [28] = Elimination half life in human at 8 mg/m2 administered as 10 mins iv infusion; format: ADME, organism-based; conditions: in vivo, read-out: beta t1/2 (converted)
# [29] = Elimination half life in human at 16 mg/m2 administered as 10 mins iv infusion; format: ADME, organism-based; conditions: in vivo, read-out: beta t1/2 (converted)
# [30] = Elimination half life in human at 36 mg/m2, iv; format: ADME, organism-based; conditions: in vivo, read-out: beta t1/2 (converted)
# Homo sapiens [31] = assay: Clearance in human at 8 mg/m2 administered as 10 mins iv infusion; format: ADME, organism-based; conditions: in vivo
# Homo sapiens [32] = assay: Clearance in human at 16 mg/m2 administered as 10 mins iv infusion; format: ADME, organism-based; conditions: in vivo
# Homo sapiens [33] = assay: Volume of distribution at steady state in human at 8 mg/m2 administered as 10 mins iv infusion; format: ADME, organism-based; conditions: in vivo
# Homo sapiens [34] = assay: Volume of distribution at steady state in human at 16 mg/m2 administered as 10 mins iv infusion; format: ADME, organism-based; conditions: in vivo
# Homo sapiens [35] = assay: Volume of distribution at steady state in human at 36 mg/m2, iv; format: ADME, organism-based; conditions: in vivo
# [36] = Thermodynamic aqueous solubility of the compound in pH 7.4 phosphate buffer at 6.2 mg/ml after overnight incubation by CLND method; format: physicochemical
# [37] = Thermodynamic aqueous solubility of the compound in pH 7.4 phosphate buffer at 6.4 mg/ml after overnight incubation by CLND method; format: physicochemical
Compound,IC50 (MIA PaCa-2) [µM],IC50 (HCT-116 [1]) [µM],IC50 [2] [µM],further results
O=C(O)c1cc(-c2ccc(-c3ccccc3)cc2)nc2ccccc12,2.16,0.344,–,IC50 (HL-60): 3.51 µM
Cc1c(-c2ccc(-c3ccccc3)cc2)nc2ccccc2c1C(=O)O,5.29,8.51,–,–
O=C(O)c1cc(-c2ccc(-c3ccc(F)nc3)cc2)nc2ccccc12,–,16.8,–,–
CC(C)Cc1ccc(-c2cc(C(=O)O)c3ccccc3n2)cc1,14.5,–,–,–
Cc1c(-c2ccc(-c3cccnc3F)cc2)nc2ccc(Cl)cc2c1C(=O)O,14.7,5.43,–,–
Cc1ccc2nc(-c3ccc(-c4cccnc4Cl)cc3)c(C)c(C(=O)O)c2c1,8.29,11.1,–,–
Cc1c(-c2ccc(-c3cccnc3Cl)cc2)nc2ccc(Cl)cc2c1C(=O)O,4.73,4.36,–,–
O=C(O)c1cc(-c2ccc(-c3cccnc3Cl)cc2)nc2ccccc12,7.13,–,–,IC50 (HL-60): 7.12 µM
COC(=O)c1cc(-c2ccc(-c3ccccc3)cc2)nc2ccccc12,11.5,6.9,> 200,–
Cc1c(-c2ccc(-c3cccnc3F)cc2)nc2ccccc2c1C(=O)O,13.4,21.3,–,–
O=C(O)c1cc(-c2ccc(-c3cccnc3F)cc2)nc2ccccc12,32.1,11.2,1.42,–
O=C(O)c1cc(-c2ccc(-c3ccccn3)cc2)nc2ccccc12,49.3,39.6,–,–
Cc1ccc(-c2ccc(-c3nc4ccc(F)cc4c(C(=O)O)c3C)cc2)c(F)n1,33.8,33.7,–,–
Cc1c(-c2ccc(-c3cccnc3Cl)cc2)nc2ccccc2c1C(=O)O,8.64,6.44,–,IC50 (HL-60): 15.3 µM
Cc1ccc(-c2ccc(-c3cc(C(=O)O)c4ccccc4n3)cc2)c(Cl)n1,14.2,5.13,–,–
O=C(O)c1cc(-c2ccc(C3CCCCC3)cc2)nc2ccccc12,5.88,4.22,–,growth inhibition (GI) (HCT-116 [3]): <50%; Therm_solubility [4]: 43.9 µM; Therm_solubility [5]: 48 µM
O=C(O)c1cc(-c2ccc(-c3cccnc3)cc2)nc2ccccc12,32.8,20.9,–,–
O=C(O)c1cc(-c2ccc(-c3ccncc3)cc2)nc2ccccc12,68.1,33.6,–,–
O=C(O)c1cc(-c2ccc(N3CCCCC3)cc2)nc2ccccc12,16.7,7.23,–,–
Cc1ccc(-c2ccc(-c3nc4ccccc4c(C(=O)O)c3C)cc2)c(F)n1,31.6,23.9,–,–
O=C(O)c1cc(-c2ccc(N3CCOCC3)cc2)nc2ccccc12,> 100,> 100,> 200,–
Cc1ncccc1-c1ccc(-c2cc(C(=O)O)c3ccccc3n2)cc1,18.2,–,–,IC50 (HL-60): 11.6 µM
Cc1ccc(-c2ccc(-c3nc4ccccc4c(C(=O)O)c3C)cc2)c(Cl)n1,7.7,15.5,–,–
COC(=O)c1cc(-c2ccc(-c3cnccc3C(F)(F)F)cc2)nc2ccccc12,–,–,> 50,–
O=C(O)c1cc(-c2ccc(-c3cncnc3)cc2)nc2ccccc12,> 50,> 50,> 200,–

Compound,IC50 (MIA PaCa-2) [µM],IC50 (HCT-116 [1]) [µM],IC50 [2] [µM],further results
Cc1ccc(-c2ccc(-c3nc4cnccc4c(C(=O)O)c3C)cc2)c(Cl)n1,> 100,> 100,5.26,–
O=C(O)c1cc(-c2ccc(-c3cccnc3C(F)(F)F)cc2)nc2ccccc12,8.84,4.63,–,–
Cc1c(-c2ccc(-c3ccccc3)cc2)nc2cnc(C(F)(F)F)cc2c1C(=O)O,2.18,0.88,0.0212,IC50 (HL-60): 2.67 µM
Cc1ccncc1-c1ccc(-c2cc(C(=O)O)c3ccccc3n2)cc1,17.9,10.8,–,–
O=C(O)c1cc(-c2ccc(-c3cnccc3C(F)(F)F)cc2)nc2ccccc12,8.71,3.87,–,–
Cc1c(-c2ccc(-c3ccccc3)cc2)nc2cnccc2c1C(=O)O,4.5,6.3,0.0283,IC50 (HL-60): 7.08 µM; Therm_solubility [6]: 2628.4 µM; Therm_solubility [7]: 3096.3 µM
Cc1c(-c2ccc(-c3ccccc3F)cc2)nc2cnc(C(F)(F)F)cc2c1C(=O)O,0.454,0.333,0.0118,IC50 (HL-60): 0.401 µM
Cc1c(-c2ccc(-c3cccnc3Cl)cc2)nc2cnccc2c1C(=O)O,> 100,> 100,0.259,–
Cc1ccc(-c2ccc(-c3nc4ccc(Cl)cc4c(C(=O)O)c3C)cc2)c(Cl)n1,7.56,2.71,–,–
O=C(O)c1cc(-c2ccc(-c3ncccn3)cc2)nc2ccccc12,> 50,> 50,> 200,–
COC(=O)c1cc(-c2ccc(N3CCCCC3)cc2)nc2ccccc12,31.8,38.2,> 200,–
Cc1c(-c2ccc(-c3ccccc3)cc2)nc2ccncc2c1C(=O)O,28.1,26.7,2.79,–
Cc1c(-c2ccc(-c3ccccc3)cc2)nc2ncccc2c1C(=O)O,> 100,> 100,1.22,–
COc1ncccc1-c1ccc(-c2cc(C(=O)O)c3ccccc3n2)cc1,13.6,–,–,–
Cc1c(-c2ccc(-c3cccnc3Cl)cc2)nc2cnc(C(F)(F)F)cc2c1C(=O)O,21.5,25.7,0.201,–
Cc1c(-c2ccc(-c3cccnc3Cl)cc2)nc2ccc(F)cc2c1C(=O)O,7.18,3.02,–,IC50 (HL-60): 9.28 µM; C0 [8]: 45400 ng/mL; Cmax [9]: 5310 ng/mL; Tmax [10]: 0.25 h; AUC(0-t) [11]: 32300 ng·h/mL; AUC(0-t) [12]: 35900 ng·h/mL; AUC(0-inf) [13]: 32300 ng·h/mL; AUC(0-inf) [14]: 36000 ng·h/mL; half-life [15]: 2.73 h; half-life [16]: 2.78 h; clearance [17]: 5.15 mL/min/kg; CL/F [18]: 9.25 mL/min/kg; Vd [19]: 0.496 L/kg; Vd/F [20]: 2.23 L/kg; F (Mus musculus): 56%; Therm_solubility [5]: 982.1 µM; Therm_solubility [21]: 1000.1 µM
COC(=O)c1cc(-c2ccc(C3CCCCC3)cc2)nc2ccccc12,37.1,42.6,> 200,–
COC(=O)c1cc(-c2ccc(-c3cccnc3)cc2)nc2ccccc12,6.43,6.15,> 200,–
Cc1c(-c2ccc(-c3cccnc3F)cc2)nc2ccc(F)cc2c1C(=O)O,23.6,5.71,–,–
Cc1ccc(-c2ccc(-c3nc4ccc(F)cc4c(C(=O)O)c3C)cc2)c(Cl)n1,6.57,1.98,–,IC50 (HL-60): 4.81 µM
CC(C)c1ccc(-c2cc(C(=O)O)c3ccccc3n2)cc1,24.2,19.1,–,–
COc1ccccc1-c1ccc(-c2cc(C(=O)O)c3ccccc3n2)cc1,7.45,2.85,–,–
Cc1c(-c2ccc(-c3ccccc3F)cc2)nc2ccc(F)cc2c1C(=O)O [BREQUINAR],1.69,0.679,–,solubility [22]: < 100 µg/mL; growth inhibition (GI) (HCT-116 [3]): <50%; IC50 (HL-60): 0.544 µM; Cmax [23]: 1800 ng/mL; Cmax [24]: 2700 ng/mL; AUC(0-t) at 10 min [25]: 3200 ng·h/mL; AUC(0-t) at 10 min [26]: 3800 ng·h/mL; AUC(0-t) [27]: 20700 ng·h/mL; half-life [28]: 2.9 h; half-life [29]: 3.1 h; half-life [30]: 4.3 h; CL (Homo sapiens [31]): 3.2 L/hr/m2; CL (Homo sapiens [32]): 4.9 L/hr/m2; Vdss (Homo sapiens [33]): 8.2 L/m2; Vdss (Homo sapiens [34]): 11.6 L/m2; Vdss (Homo sapiens [35]): 7.48 L/m2; Therm_solubility [36]: 1085.2 µM; Therm_solubility [37]: 1048.6 µM
O=C(O)c1cc(-c2ccccc2)nc2ccccc12 [CINCHOPHEN],> 100,> 100,144,–
